Measurements as given in patent US8183235B2, “Dihydronaphthalene compound and use thereof” (Tokyo University of Science Educational Foundation …, priority 2007, dated 2012).
Where two headings read alike, the source gives them in different places.

Key:
[1] = test system: Cathepsin B; assay: Cathepsin-like activity inhibition test; format: biochemical
Protocol: Cathepsin-Like Activity Inhibition Test
(§1) 1) To 20S proteasome, naforidaifen B adjusted to a concentration of 10 μM was added, and incubated at 30° C. for 10 min.
2) To the above test system, fluorescence labeled cathepsin including a 20S proteasome segmenting sequence was added, and reacted for 1 hr at 30° C.
(§2) 3) The fluorescent substance (AMC) released by the above reaction was excited with 360 nm light and assayed with 460 nm light.
(§3) 4) A test system to which naforidaifen B was not added was measured in the same way as (1) to (3) above, and the enzyme activity for the case of using naforidaifen B was measured.
(§4) 5) Stepwise diluted solutions containing naforidaifen B were prepared, and after carrying out the same evaluations as in (1) to (4), the 50% inhibition concentration (IC50) was determined.
6) As a positive control of the enzyme activity, the known proteasome inhibitor Clasto-Lactacystin β-Lactone (Lactacystin activator) and MGI32 were evaluated with the steps (1) to (5).

[2] = test system: OVCAR-3; assay: Proliferation inhibition of ovarian cancer cells; format: cell-based; conditions: Homo sapiens
Protocol: (§5) As a comparison for the inhibition activity, tamoxifen citrate (TAM) was used. In the Table, the concentration units are μM.
(§6) In the same way as in Example 9, the proliferation inhibition activity of naforidaifens A to G was measured with respect to five types of ovarian cancer cells (OVCAR-3, OVCAR-4, OVCAR-5, OVCAR-8, AND SK-OV-3). In the Table, the concentration units are μM.

[3] = test system: OVCAR-4; assay: Proliferation inhibition of ovarian cancer cells; format: cell-based; conditions: Homo sapiens
Protocol: as §5, §6

[4] = test system: OVCAR-8; assay: Proliferation inhibition of ovarian cancer cells; format: cell-based; conditions: Homo sapiens
Protocol: as §5, §6

[5] = test system: SK-OV-3; assay: Proliferation inhibition of ovarian cancer cells; format: cell-based; conditions: Homo sapiens
Protocol: as §5, §6

[6] = test system: OVCAR-5; assay: Proliferation inhibition of ovarian cancer cells; format: cell-based; conditions: Homo sapiens
Protocol: as §5, §6

[7] = molecular target: 20S proteasome (Homo sapiens, UniProt P28072+P28074+Q99436); assay: Proteasome inhibition activity, overall judgement; format: biochemical; conditions: for Proteasome selectivity: judgement; for The evaluations (proteasome inhibition activity): overall judgement positive/negative
[8] = test system: colon cancer cells; assay: Proliferation inhibition, colon cancer cell panel (summary); format: cell-based; conditions: all of the five types of colon cancer cell lines; read-out: effective concentration
Protocol: as §5
(§7) In the same way as in Example 9, the proliferation inhibition activity of naforidaifens A to G was measured with respect to five types of colon cancer cells (HCC2998, KM-12, HT-29, HCT-15, and HCT-116). In the Table, the concentration units are μM.

[9] = molecular target: 20S proteasome trypsin-like activity (Homo sapiens, UniProt Q99436); assay: Trypsin-like activity inhibition test; format: biochemical; conditions: for remaining activity at 10 µM: read-out: % Control, Trypsin-like Activity
[10] = test system: St-4; assay: Proliferation inhibition of stomach cancer cells; format: cell-based; conditions: Homo sapiens
Protocol: as §5
(§8) In the same way as in Example 9, the proliferation inhibition activity of naforidaifens A to G was measured with respect to six types of stomach cancer cells (St-4, MKN1, MKN7, MKN28, MKN45, MKN74). In the Table, the concentration units are μM.

[11] = test system: MKN28; assay: Proliferation inhibition of stomach cancer cells; format: cell-based; conditions: Homo sapiens, MKN-28
Protocol: as §5, §8

[12] = test system: MKN45; assay: Proliferation inhibition of stomach cancer cells; format: cell-based; conditions: Homo sapiens, MKN-45
Protocol: as §5, §8

[13] = test system: MKN7; assay: Proliferation inhibition of stomach cancer cells; format: cell-based; conditions: Homo sapiens, MKN-7
Protocol: as §5, §8

[14] = test system: MKN1; assay: Proliferation inhibition of stomach cancer cells; format: cell-based; conditions: Homo sapiens, MKN-1
Protocol: as §5, §8

[15] = test system: MKN74; assay: Proliferation inhibition of stomach cancer cells; format: cell-based; conditions: Homo sapiens, MKN-74
Protocol: as §5, §8

[16] = test system: SF-295; assay: Inhibition of propagation of central nervous system cancer cells (sulforhodamin B); format: cell-based; conditions: Homo sapiens, 48 h; SF-295, two days of cultivation
Description: as §5

[17] = test system: SF-539; assay: as above; format: cell-based; conditions: Homo sapiens, 48 h; SF-539, two days of cultivation
Description: as §5

[18] = test system: U251; assay: as above; format: cell-based; conditions: Homo sapiens, U-251, 48 h; U251, two days of cultivation
Description: as §5

[19] = test system: SF-268; assay: as above; format: cell-based; conditions: Homo sapiens, 48 h; SF-268, two days of cultivation
Description: as §5

[20] = test system: SNB-78; assay: as above; format: cell-based; conditions: Homo sapiens, 48 h; SNB-78, two days of cultivation
Description: as §5

[21] = test system: SNB-75; assay: as above; format: cell-based; conditions: Homo sapiens, 48 h; SNB-75, two days of cultivation
Description: as §5

[22] = test system: stomach cancer cells; assay: Proliferation inhibition, stomach cancer cell panel (summary); format: cell-based; conditions: all of the six types of stomach cancer cell lines; read-out: effective concentration
Protocol: as §5, §8

[23] = molecular target: 20S proteasome chymotrypsin-like activity (Homo sapiens, UniProt P28074); assay: Chymotrypsin-like activity inhibition test; format: biochemical; conditions: for remaining activity at 10 µM: read-out: % Control, Chymotrypsin-like Activity
[24] = test system: ovarian cancer cells; assay: Proliferation inhibition, ovarian cancer cell panel (summary); format: cell-based; conditions: all of the five types of ovarian cancer cell lines; read-out: effective concentration
Protocol: as §5, §6

[25] = molecular target: 20S proteasome caspase-like activity (Homo sapiens, UniProt P28072); assay: Caspase-like activity inhibition test; format: biochemical; conditions: for remaining activity at 10 µM: read-out: % Control, Caspase-like Activity
[26] = molecular target: α-chymotrypsin (Bos taurus, UniProt P00766); assay: α-Chymotrypsin-like activity inhibition test; format: biochemical
Protocol: α-Chymotrypsin-Like Activity Inhibition Test
as §1
2) To the above test system, fluorescence labeled α-chymotrypsin including a 20S proteasome segmenting sequence was added, and reacted for 1 hr at 30° C.
as §2, §3, §4
6) As a positive control of the enzyme activity, the well-known proteasome inhibitor Clasto-Lactacystin β-Lactone (Lactacystin activator) and MGI32 were evaluated with the steps (1) to (5).

[27] = test system: HCT-116; assay: Proliferation inhibition of colon cancer cells; format: cell-based; conditions: Homo sapiens
Protocol: as §5, §7

[28] = test system: HCC2998; assay: Proliferation inhibition of colon cancer cells; format: cell-based; conditions: Homo sapiens, HCC 2998
Protocol: as §5, §7

[29] = test system: HCT-15; assay: Proliferation inhibition of colon cancer cells; format: cell-based; conditions: Homo sapiens
Protocol: as §5, §7

[30] = test system: KM-12; assay: Proliferation inhibition of colon cancer cells; format: cell-based; conditions: Homo sapiens, KM12
Protocol: as §5, §7

[31] = test system: HT-29; assay: Proliferation inhibition of colon cancer cells; format: cell-based; conditions: Homo sapiens
Protocol: as §5, §7

[32] = test system: central nervous system cancer cells; assay: Proliferation inhibition, central nervous system cancer cell panel (summary); format: cell-based; conditions: in general with respect to various central nervous system cancer cells; read-out: cytotoxic activity (extent of effective concentration)
Description: as §5

Structure (SMILES) | GI50 [2] [nM] | GI50 [3] [nM] | GI50 [4] [nM] | GI50 [5] [nM] | GI50 [6] [nM] | The evaluations (proteasome inhibition activity) [7] | GI50 [10] [nM] | GI50 [11] [nM] | GI50 [12] [nM] | GI50 [13] [nM] | GI50 [14] [nM] | GI50 [15] [nM] | GI50 [16] [nM] | GI50 [17] [nM] | GI50 [18] [nM] | GI50 [19] [nM] | GI50 [20] [nM] | GI50 [21] [nM] | IC50 [23] [nM] | GI50 [27] [nM] | other results
c1ccc(C2=C(c3ccc(OCCN4CCCCCC4)cc3)c3ccc(OCCN4CCCCCC4)cc3CC2)cc1 [Naforidaifen F, 4-[4-(2-hexahydro-1H-azepin-1-yl-ethoxy)phenyl]-7-(2-hexahydro-1H-azepin-1-yl-ethoxy)-3-phenyl-1,2-dihydronaphthalene] | 1410 | 1780 | 2000 | 1910 | 1320 | positive | 1580 | 1820 | 1580 | 1230 | 1550 | 1170 | 1780 | 1660 | 1480 | 1700 | 1700 | 1740 | 4300 | 1230 | Cathepsin B inhibition [1]: none; Proteasome selectivity [7]: present; IC50 [8]: 500 to 1500 nM; IC50 [9]: > 10000 nM; remaining activity at 10 µM [9]: 251%; IC50 [22]: 1100 to 1800 nM; remaining activity at 10 µM [23]: 34.2%; IC50 [24]: 1200 to 1900 nM; IC50 [25]: 5100 nM; remaining activity at 10 µM [25]: 39.1%; α-chymotrypsin inhibition [26]: none; GI50 [28]: 1070 nM; GI50 [29]: 1230 nM; GI50 [30]: 1590 nM; GI50 [31]: 501 nM
CN(C)CCCOc1ccc(C2=C(c3ccccc3)CCc3cc(OCCCN(C)C)ccc32)cc1 [Naforidaifen G, 4-[4-(3-dimethylamino-1-yl-propoxy)phenyl]-7-(3-dimethylamino-1-yl-propoxy)-3-phenyl-1,2-dihydronaphthalene] | 1510 | 1780 | 1860 | 1740 | 1290 | negative | 1480 | 1620 | 1480 | 1320 | 1510 | 1150 | 1780 | 1480 | 1480 | 1580 | 1780 | 1620 | > 10000 | 1100 | IC50 [32]: 1400 to 1900 nM; IC50 [22]: 1100 to 1800 nM; remaining activity at 10 µM ([23]; Concentration 10 μM): 105%; IC50 [24]: 1200 to 1900 nM; GI50 [28]: 1290 nM; GI50 [29]: 1290 nM; GI50 [30]: 1660 nM; GI50 [31]: 490 nM
c1ccc(C2=C(c3ccc(OCCN4CCCCC4)cc3)c3ccc(OCCN4CCCCC4)cc3CC2)cc1 [Naforidaifen C, 4-[4-(2-piperidine-1-yl-ethoxy)phenyl]-7-(2-piperidine-1-yl-ethoxy)-3-phenyl-1,2-dihydronaphthalene] | 1660 | 2090 | 2400 | 2040 | 1260 | positive | 1580 | 2510 | 2140 | 1550 | 1660 | 1200 | 1740 | 1480 | 1480 | 1740 | 1820 | 1510 | 3200 | 1170 | Cathepsin B inhibition [1]: none; IC50 [32]: 1400 to 1900 nM; Proteasome selectivity [7]: present; IC50 [9]: > 10000 nM; remaining activity at 10 µM [9]: 196%; remaining activity at 10 µM [23]: 25.9%; IC50 [25]: 5100 nM; remaining activity at 10 µM [25]: 31.3%; α-chymotrypsin inhibition [26]: none; GI50 [28]: 1350 nM; GI50 [29]: 1380 nM; GI50 [30]: 1820 nM; GI50 [31]: 550 nM
